{"source": "the supplement of paper PMC10307832", "test_in_all_cases": "relative viability (nuclei count vs DMSO), 5 days (fraction); higher = more cells survive", "key": {"[1]": {"test_system": "NCI-H647", "in_short": "(§1)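 Medians of duplicate plates are given as relative viability. That measure is the nuclei count in treated wells divided by the count in vehicle wells. Counts were taken on 4× images of lung cancer cell lines in 1536-well plates, 5 days after pin-tool dosing the day after seeding with one drug alone or a fixed anchor-drug dose plus five library-drug doses (not always all listed) in √10 steps.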"}, "[2]": {"test_system": "LCLC-103H", "in_short": "as §1"}, "[3]": {"test_system": "NCI-H661", "in_short": "as §1"}, "[4]": {"test_system": "NCI-H1651", "in_short": "as §1"}, "[5]": {"test_system": "EMC-BAC-2", "in_short": "as §1"}, "[6]": {"test_system": "NCI-H1734", "in_short": "as §1"}, "[7]": {"test_system": "HCC-78", "in_short": "as §1"}, "[8]": {"test_system": "201T", "in_short": "as §1"}, "[9]": {"test_system": "EPLC-272H", "in_short": "as §1"}, "[10]": {"test_system": "LOU-NH91", "in_short": "as §1"}, "[11]": {"test_system": "NCI-H23", "in_short": "as §1"}, "[12]": {"test_system": "SK-LU-1", "in_short": "as §1"}, "[13]": {"test_system": "NCI-H1437", "in_short": "as §1"}, "[14]": {"test_system": "NCI-H2023", "in_short": "as §1"}, "[15]": {"test_system": "ABC-1", "in_short": "as §1"}, "[16]": {"test_system": "NCI-H2405", "in_short": "as §1"}, "[17]": {"test_system": "NCI-H1395", "in_short": "as §1"}, "[18]": {"test_system": "NCI-H1975", "in_short": "as §1"}, "[19]": {"test_system": "NCI-H1793", "in_short": "as §1"}, "[20]": {"test_system": "NCI-H1915", "in_short": "as §1"}, "[21]": {"test_system": "RERF-LC-KJ", "in_short": "as §1"}, "[22]": {"test_system": "UMC-11", "in_short": "as §1"}, "[23]": {"test_system": "NCI-H1792", "in_short": "as §1"}}, "data": [{"smiles": "Cc1cnc(-c2cnc(NCCNc3ccc(C#N)cn3)nc2-c2ccc(Cl)cc2Cl)[nH]1", "note": "+ C[C@]1(O)C[C@@H](c2nc(-c3ccc4ccc(-c5ccccc5)nc4c3)c3c(N)nccn32)C1 [Linsitinib] (partner 1 µM)", "values": [{"measurement": "relative viability", "setting": "[1]; first compound 0.08 µM", "result": 1.17}, {"measurement": "relative viability", "setting": "[1]; first compound 0.253 µM", "result": 0.993}, {"measurement": "relative viability", "setting": "[1]; first compound 0.8 µM", "result": 1.17}, {"measurement": "relative viability", "setting": "[1]; first compound 2.53 µM", "result": 1.03}, {"measurement": "relative viability", "setting": "[2]; first compound 0.08 µM", "result": 0.968}, {"measurement": "relative viability", "setting": "[2]; first compound 0.253 µM", "result": 1.11}, {"measurement": "relative viability", "setting": "[2]; first compound 0.8 µM", "result": 1.21}, {"measurement": "relative viability", "setting": "[2]; first compound 2.53 µM", "result": 1.09}, {"measurement": "relative viability", "setting": "[3]; first compound 0.08 µM", "result": 0.775}, {"measurement": "relative viability", "setting": "[3]; first compound 0.253 µM", "result": 0.628}, {"measurement": "relative viability", "setting": "[3]; first compound 0.8 µM", "result": 0.448}, {"measurement": "relative viability", "setting": "[3]; first compound 2.53 µM", "result": 0.63}, {"measurement": "relative viability", "setting": "[4]; first compound 0.08 µM", "result": 1.22}, {"measurement": "relative viability", "setting": "[4]; first compound 0.253 µM", "result": 0.893}, {"measurement": "relative viability", "setting": "[4]; first compound 0.8 µM", "result": 1.04}, {"measurement": "relative viability", "setting": "[4]; first compound 2.53 µM", "result": 1.06}, {"measurement": "relative viability", "setting": "[5]; first compound 0.08 µM", "result": 0.852}, {"measurement": "relative viability", "setting": "[5]; first compound 0.253 µM", "result": 0.792}, {"measurement": "relative viability", "setting": "[5]; first compound 0.8 µM", "result": 0.814}, {"measurement": "relative viability", "setting": "[5]; first compound 2.53 µM", "result": 0.83}, {"measurement": "relative viability", "setting": "[6]; first compound 0.08 µM", "result": 1.01}, {"measurement": "relative viability", "setting": "[6]; first compound 0.253 µM", "result": 0.763}, {"measurement": "relative viability", "setting": "[6]; first compound 0.8 µM", "result": 0.837}, {"measurement": "relative viability", "setting": "[6]; first compound 2.53 µM", "result": 0.849}, {"measurement": "relative viability", "setting": "[7]; first compound 0.08 µM", "result": 0.632}, {"measurement": "relative viability", "setting": "[7]; first compound 0.253 µM", "result": 0.437}, {"measurement": "relative viability", "setting": "[7]; first compound 0.8 µM", "result": 0.459}, {"measurement": "relative viability", "setting": "[7]; first compound 2.53 µM", "result": 0.435}, {"measurement": "relative viability", "setting": "[8]; first compound 0.08 µM", "result": 1.03}, {"measurement": "relative viability", "setting": "[8]; first compound 0.253 µM", "result": 1.01}, {"measurement": "relative viability", "setting": "[8]; first compound 0.8 µM", "result": 1.02}, {"measurement": "relative viability", "setting": "[8]; first compound 2.53 µM", "result": 1.01}, {"measurement": "relative viability", "setting": "[9]; first compound 0.08 µM", "result": 1.08}, {"measurement": "relative viability", "setting": "[9]; first compound 0.253 µM", "result": 1.18}, {"measurement": "relative viability", "setting": "[9]; first compound 0.8 µM", "result": 1.27}, {"measurement": "relative viability", "setting": "[9]; first compound 2.53 µM", "result": 1.13}, {"measurement": "relative viability", "setting": "[10]; first compound 0.08 µM", "result": 1.07}, {"measurement": "relative viability", "setting": "[10]; first compound 0.253 µM", "result": 0.951}, {"measurement": "relative viability", "setting": "[10]; first compound 0.8 µM", "result": 0.969}, {"measurement": "relative viability", "setting": "[10]; first compound 2.53 µM", "result": 0.89}, {"measurement": "relative viability", "setting": "[11]; first compound 0.08 µM", "result": 0.674}, {"measurement": "relative viability", "setting": "[11]; first compound 0.253 µM", "result": 0.555}, {"measurement": "relative viability", "setting": "[11]; first compound 0.8 µM", "result": 0.536}, {"measurement": "relative viability", "setting": "[11]; first compound 2.53 µM", "result": 0.691}, {"measurement": "relative viability", "setting": "[12]; first compound 0.08 µM", "result": 1.13}, {"measurement": "relative viability", "setting": "[12]; first compound 0.253 µM", "result": 1.12}, {"measurement": "relative viability", "setting": "[12]; first compound 0.8 µM", "result": 1.32}, {"measurement": "relative viability", "setting": "[12]; first compound 2.53 µM", "result": 1.09}, {"measurement": "relative viability", "setting": "[13]; first compound 0.08 µM", "result": 1.01}, {"measurement": "relative viability", "setting": "[13]; first compound 0.253 µM", "result": 0.972}, {"measurement": "relative viability", "setting": "[13]; first compound 0.8 µM", "result": 1.03}, {"measurement": "relative viability", "setting": "[13]; first compound 2.53 µM", "result": 1.04}, {"measurement": "relative viability", "setting": "[14]; first compound 0.08 µM", "result": 0.779}, {"measurement": "relative viability", "setting": "[14]; first compound 0.253 µM", "result": 0.649}, {"measurement": "relative viability", "setting": "[14]; first compound 0.8 µM", "result": 0.794}, {"measurement": "relative viability", "setting": "[14]; first compound 2.53 µM", "result": 1.12}, {"measurement": "relative viability", "setting": "[15]; first compound 0.08 µM", "result": 1.04}, {"measurement": "relative viability", "setting": "[15]; first compound 0.253 µM", "result": 0.682}, {"measurement": "relative viability", "setting": "[15]; first compound 0.8 µM", "result": 0.839}, {"measurement": "relative viability", "setting": "[15]; first compound 2.53 µM", "result": 0.593}, {"measurement": "relative viability", "setting": "[16]; first compound 0.08 µM", "result": 1.25}, {"measurement": "relative viability", "setting": "[16]; first compound 0.253 µM", "result": 0.856}, {"measurement": "relative viability", "setting": "[16]; first compound 0.8 µM", "result": 0.999}, {"measurement": "relative viability", "setting": "[16]; first compound 2.53 µM", "result": 0.709}, {"measurement": "relative viability", "setting": "[17]; first compound 0.08 µM", "result": 1.17}, {"measurement": "relative viability", "setting": "[17]; first compound 0.253 µM", "result": 0.972}, {"measurement": "relative viability", "setting": "[17]; first compound 0.8 µM", "result": 1.04}, {"measurement": "relative viability", "setting": "[17]; first compound 2.53 µM", "result": 1}, {"measurement": "relative viability", "setting": "[18]; first compound 0.08 µM", "result": 1}, {"measurement": "relative viability", "setting": "[18]; first compound 0.253 µM", "result": 0.847}, {"measurement": "relative viability", "setting": "[18]; first compound 0.8 µM", "result": 0.836}, {"measurement": "relative viability", "setting": "[18]; first compound 2.53 µM", "result": 0.603}, {"measurement": "relative viability", "setting": "[19]; first compound 0.08 µM", "result": 1.16}, {"measurement": "relative viability", "setting": "[19]; first compound 0.253 µM", "result": 0.822}, {"measurement": "relative viability", "setting": "[19]; first compound 0.8 µM", "result": 0.809}, {"measurement": "relative viability", "setting": "[19]; first compound 2.53 µM", "result": 0.916}, {"measurement": "relative viability", "setting": "[20]; first compound 0.08 µM", "result": 1.08}, {"measurement": "relative viability", "setting": "[20]; first compound 0.8 µM", "result": 1.11}, {"measurement": "relative viability", "setting": "[20]; first compound 2.53 µM", "result": 1.08}, {"measurement": "relative viability", "setting": "[21]; first compound 0.08 µM", "result": 0.948}, {"measurement": "relative viability", "setting": "[21]; first compound 0.253 µM", "result": 0.828}, {"measurement": "relative viability", "setting": "[21]; first compound 0.8 µM", "result": 0.843}, {"measurement": "relative viability", "setting": "[21]; first compound 2.53 µM", "result": 0.877}, {"measurement": "relative viability", "setting": "[22]; first compound 0.08 µM", "result": 1.04}, {"measurement": "relative viability", "setting": "[22]; first compound 0.253 µM", "result": 1}, {"measurement": "relative viability", "setting": "[22]; first compound 0.8 µM", "result": 1}, {"measurement": "relative viability", "setting": "[22]; first compound 2.53 µM", "result": 0.985}, {"measurement": "relative viability", "setting": "[23]; first compound 0.08 µM", "result": 0.683}, {"measurement": "relative viability", "setting": "[23]; first compound 0.253 µM", "result": 0.435}, {"measurement": "relative viability", "setting": "[23]; first compound 0.8 µM", "result": 0.464}, {"measurement": "relative viability", "setting": "[23]; first compound 2.53 µM", "result": 0.524}]}]}
